From patent US12520844B2 (Bayer Aktiengesellschaft, priority 2020, dated 2026)

Experiment: Measurement of Log P values by HPLC on reversed phase columns (EEC directive 79/831 Annex V.A8)
Assay type: physicochemical
Method: Measurement of Log P values as provided herein was performed according to EEC directive 79/831 Annex V.A8 by HPLC (High Performance Liquid Chromatography) on reversed phase columns with the following methods: • ^[a] Log P value is determined by measurement of LC-UV, in an acidic range, with 0.1% formic acid in water and acetonitrile as eluent (linear gradient from 10% acetonitrile to 95% acetonitrile). • ^[b] Log P value is determined by measurement of LC-UV, in a neutral range, with 0.001 molar ammonium acetate solution in water and acetonitrile as eluent (linear gradient from 10% acetonitrile to 95% acetonitrile). • ^[c] Log P value is determined by measurement of LC-UV, in an acidic range, with 0.1% phosphoric acid and acetonitrile as eluent (linear gradient from 10% acetonitrile to 95% acetonitrile).
If more than one Log P value is available within the same method, all the values are given and separated by “+”.
Calibration was done with straight-chain alkan2-ones (with 3 to 16 carbon atoms) with known Log P values (measurement of Log P values using retention times with linear interpolation between successive alkanones). Lambda-max-values were determined using UV-spectra from 200 nm to 400 nm and the peak values of the chromatographic signals

| Structure (SMILES) | LogP | chromatographic logP |
| --- | --- | --- |
| Cc1ccc(C(F)(F)CNC(=O)c2nc(C)ncc2Oc2ccc3c(c2)CCC3)c(C)c1 [Compound I-104] | 4.56^[a] | – |
| Cc1ccc(C(F)(F)CNC(=O)c2nc(C3CC3)nnc2Oc2cccc(C(F)(F)F)c2)cc1C [Compound I-024] | 4.66^[a] | – |
| Cc1ccc(C(F)(F)CNC(=O)c2nc(C)ncc2Oc2ccccc2)c(C)c1 [Compound I-058] | 3.71^[a] | – |
| Cc1ccc(C(F)(F)CNC(=O)c2nc(C)ncc2Oc2cccc(OC(F)(F)F)c2)c(C)c1 [Compound I-094] | 4.50^[a] | – |
| COCc1cccc(Oc2cnc(C)nc2C(=O)NCC(F)(F)c2ccc(C)cc2C)c1 [Compound I-072] | 3.67^[a] | – |
| Cc1ncc(Oc2cccc(C3CC3)c2F)c(C(=O)NCC(F)(F)c2cc(Cl)sc2Cl)n1 [Compound I-070] | 4.69^[a] | – |
| O=C(O)c1nc(F)ncc1Oc1cccc(C(F)(F)F)c1 [Compound 1-13] | 1.52^[a] | – |
| Cc1nnc(Oc2cccc(C(F)(F)F)c2)c(C(=O)NC(C)c2cccc(C(F)(F)F)c2)n1 (centres unmarked) [Compound I-119] | 3.77^[a] | – |
| C#Cc1cccc(Oc2nnc(C3CC3)nc2C(=O)OCC)c1 [Compound 1-11] | 3.59^[a] | – |
| Cc1ccc(C(F)(F)CNC(=O)c2nc(C)ncc2Oc2cccc(C)c2F)c(C)c1 [Compound I-083] | 4.07^[a] | – |
| CCOC(=O)c1nc(C2CC2)nnc1Oc1cccc(Br)c1 [Compound 1-10] | 3.94^[a] | – |
| Cc1ccc(C(F)(F)CNC(=O)c2nc(C)ncc2Oc2cccc(N(C)C)c2)c(C)c1 [Compound I-035] | 3.88^[a] | – |
| CCc1ncc(Cl)c(C(=O)NCC(F)(F)c2ccc(C)cc2C)n1 [Compound 3-01] | 3.77^[a] | – |
| Cc1ccc(C(F)(F)CNC(=O)c2nc(C)ncc2Oc2cccc(-n3ccc(C(F)(F)F)n3)c2)c(C)c1 [Compound I-122] | 4.54^[a] | – |
| Cc1ccc(C(F)(F)CNC(=O)c2nc(C)ncc2Oc2ccc(C(F)(F)F)cc2)c(C)c1 [Compound I-049] | 4.39^[a] | – |
| Cc1ccc(C(F)(F)CNC(=O)c2nc(C)ncc2Oc2cccc(Cl)c2)c(C)c1 [Compound I-013] | 4.30^[a] | – |
| Cc1ncc(Oc2cccc(C3CC3)c2F)c(C(=O)NCCc2ccc3c(c2)OCO3)n1 [Compound I-124] | 3.34^[a] | – |
| Cc1ccc(C(F)(F)CNC(=O)c2nc(C)ncc2Oc2cccc(Br)c2)c(C)c1 [Compound I-085] | 4.28^[a] | – |

| Structure (SMILES) | LogP | chromatographic logP |
| --- | --- | --- |
| C=Cc1cccc(Oc2cnc(C)nc2C(=O)NCC(F)(F)c2ccc(C)cc2C)c1 [Compound I-115] | 4.17^[a] | – |
| CCOC(=O)c1nc(C2CC2)nnc1Oc1cccc(Br)c1F [Compound 1-07] | 3.93^[a] | – |
| Cc1nnc(Oc2cccc(C(F)(F)F)c2)c(C(=O)NCC2(c3ccc(Cl)cc3)COC2)n1 [Compound I-110] | 3.35^[a] | – |
| Cc1nnc(Oc2cccc(C(F)(F)F)c2)c(C(=O)NCC(Cl)c2ccc(Cl)cc2Cl)n1 (racemic) [Compound I-020] | 4.34^[a] | – |
| Cc1ccc(C(F)(F)CNC(=O)c2nc(C)ncc2Oc2cccc(Cl)c2F)c(C)c1 [Compound I-039] | 4.22^[a] | – |
| O=C(O)c1nc(C2CC2)ncc1Oc1cccc(C(F)(F)F)c1 [Compound 1-03] | 2.49^[a] | – |
| Cc1nnc(Oc2cccc(C(F)(F)F)c2)c(C(=O)NCC(F)(F)c2ccc(Cl)cc2Cl)n1 [Compound I-007] | 4.20^[a] | – |
| CCOC(=O)c1nc(C)nnc1Oc1cccc(C(F)(F)F)c1 [Compound 1-02, ethyl 3-methyl-6-[3-(trifluoromethyl)phenoxy]-1,2,4-triazine-5-carboxylate] | – | 3.18 |
| Cc1nnc(Oc2cccc(C(F)(F)F)c2)c(C(=O)NCC(F)(F)c2ccc(Br)cc2Cl)n1 [Compound I-005, N-[2-(4-bromo-2-chlorophenyl)-2,2-difluoroethyl]-3-methyl-6-[3-(trifluoromethyl)phenoxy]-1,2,4-triazine-5-carboxamide] | – | 4.26 |
| Cc1ccc(C(F)(F)CNC(=O)c2nc(C3CC3)nnc2Oc2cccc(C(F)(F)F)c2)c(C)c1 [Compound I-121] | 4.74^[a] | – |
| Cc1ccc(C(F)(F)CNC(=O)c2nc(C3CC3)ncc2Br)c(C)c1 [Compound 3-02] | 4.08^[a] | – |
| Cc1ccc(/C(F)=C\NC(=O)c2nc(C3CC3)nnc2Oc2cccc(C)c2F)c(C)c1 [Compound I-051] | 5.16^[a] | – |
| C#Cc1cccc(Oc2cnc(C)nc2C(=O)NCC(F)(F)c2ccc(C)cc2C)c1 [Compound I-102] | 4.01^[a] | – |
| C#Cc1cccc(Oc2nnc(C3CC3)nc2C(=O)N/C=C(\F)c2ccc(C)cc2C)c1 [Compound I-038] | 4.59^[a] | – |
| Cc1ncc(Oc2cccc(C3CC3)c2F)c(C(=O)NC2CC(C)(C)Oc3cc(Cl)c(F)cc32)n1 (centres unmarked) [Compound I-080] | 4.87^[a] | – |
| COc1cccc(Oc2cnc(C)nc2C(=O)NCC(F)(F)c2ccc(C)cc2C)c1 [Compound I-019] | 3.76^[a] | – |
| CSc1ncc(Oc2cccc(C(F)(F)F)c2)c(C(=O)NCC(F)(F)c2ccc(C)cc2C)n1 [Compound I-012] | 4.97^[a] | – |

The next lines start with the values.

| LogP | chromatographic logP | Structure (SMILES) |
| --- | --- | --- |
| 3.81^[a] | – | Cc1ncc(Oc2cccc(C3CC3)c2F)c(C(=O)NC2CCCc3sc(C4CC4)nc32)n1 (centres unmarked) [Compound I-078] |
| 2.72^[a] | – | Cc1ncc(Oc2cccc(C3CC3)c2F)c(C(=O)NCCc2ncc(Cl)cn2)n1 [Compound I-016] |
| 4.11^[a] | – | CSc1cccc(Oc2cnc(C)nc2C(=O)NCC(F)(F)c2ccc(C)cc2C)c1 [Compound I-126] |
| 4.49^[a] | – | Cc1ccc(C(F)(F)CNC(=O)c2nc(C)ncc2Oc2cccc3c2CCC3)c(C)c1 [Compound I-092] |
| 3.99^[a] | – | COc1ccc2c(c1)C(NC(=O)c1nc(C)ncc1Oc1cccc(C3CC3)c1F)C(OC)CC2 (centres unmarked) [Compound I-116] |
| 4.47^[a] | – | Cc1ccc(C(F)(F)CNC(=O)c2nc(C3CC3)nnc2Oc2cccc(C)c2F)c(C)c1 [Compound I-050] |
| 3.21^[a] | – | Cc1ncc(Oc2cccc(C3CC3)c2F)c(C(=O)NCCc2ccc3[nH]ccc3c2)n1 [Compound I-029] |
| 3.43^[a] | – | Cc1ncc(Oc2cccc(C3CC3)c2F)c(C(=O)NCCc2ccc3c(c2)CCO3)n1 [Compound I-087] |
| 4.81^[a] | – | Cc1ccc(C(F)(F)CNC(=O)c2nc(C3CC3)nnc2Oc2cccc(C3CC3)c2F)c(C)c1 [Compound I-037] |
| 5.00^[a] | – | Cc1ccc(/C(F)=C\NC(=O)c2nc(C3CC3)nnc2Oc2cccc(Cl)c2F)c(C)c1 [Compound I-109] |
| 3.52^[a] | – | Cc1ncc(Oc2cccc(C3CC3)c2F)c(C(=O)NCCc2ccc(C)o2)n1 [Compound I-041] |
| 2.78^[a] | – | Cc1ccc(C(F)(F)CNC(=O)c2nc(C)ncc2Oc2cnc3c(c2)CCC3)c(C)c1 [Compound I-118] |
| 4.66^[a] | – | Cc1ccc(C(F)(F)CNC(=O)c2nc(C3CC3)nnc2Oc2cccc(Br)c2F)c(C)c1 [Compound I-025] |
| – | 4.04 | Cc1ncc(Oc2cccc(C(F)(F)F)c2)c(C(=O)NCC(F)(F)c2ccc(Cl)cc2)n1 [Compound I-002, N-[2-(4-chlorophenyl)-2,2-difluoroethyl]-2-methyl-5-[3-(trifluoromethyl)phenoxy]pyrimidine-4-carboxamide] |
| 4.04^[a] | – | CCN(CCc1ccccc1)C(=O)c1nc(C)ncc1Oc1cccc(C2CC2)c1F [Compound I-111] |
| 4.37^[a] | – | Cc1ccc(C(F)(F)CNC(=O)c2nc(C)ncc2Oc2cccc(C(F)(F)F)c2)c(Cl)c1 [Compound I-008] |
| 2.60^[a] | – | Cc1cc(C)n(CCNC(=O)c2nc(C)ncc2Oc2cccc(C3CC3)c2F)n1 [Compound I-075] |
| 2.78^[a] | – | Cc1ncc(Oc2cccc(C3CC3)c2F)c(C(=O)NC2CCS(=O)(=O)c3ccccc32)n1 (centres unmarked) [Compound I-057] |
| 4.10^[a] | – | Cc1ncc(Oc2cccc(C3CC3)c2F)c(C(=O)NCCc2csc(C)c2C)n1 [Compound I-134] |
| 4.40^[a] | – | Cc1ncc(Oc2cccc(C3CC3)c2F)c(C(=O)NC2CCC(C)c3ccccc32)n1 (mixture of isomers) [Compound I-065] |
| 3.93^[a] | – | COc1cc(C(F)CNC(=O)c2nc(C)ncc2Oc2cccc(C3CC3)c2F)ccc1Cl (centres unmarked) [Compound I-089] |
| 4.38^[a] | – | Cc1ncc(Oc2cccc(C3CC3)c2F)c(C(=O)NCC(F)c2ccc(Cl)c(Cl)c2)n1 (racemic) [Compound I-127] |
| 4.49^[a] | – | Cc1ccc2c(c1)CCCC2NC(=O)c1nc(C)ncc1Oc1cccc(C2CC2)c1F (centres unmarked) [Compound I-053] |
| 4.02^[a] | – | Cc1ncc(Oc2cccc(C3CC3)c2F)c(C(=O)NC2CCOc3c(C)cccc32)n1 (centres unmarked) [Compound I-113] |
| 4.42^[a] | – | Cc1ccc2c(c1)C(NC(=O)c1nc(C)ncc1Oc1cccc(C3CC3)c1F)CC(C)(C)O2 (centres unmarked) [Compound I-055] |
| 3.31^[a] | – | Cc1ncc(Oc2cccc(C3CC3)c2F)c(C(=O)NCCc2ccc(C(F)(F)F)cn2)n1 [Compound I-018] |
| 3.86^[a] | – | CCOC(=O)c1nc(C2CC2)nnc1Oc1cccc(Cl)c1F [Compound 1-06] |
| 3.30^[a] | – | Cc1ncc(Oc2cccc(C3CC3)c2F)c(C(=O)NCCc2ccc3c(c2)OCCO3)n1 [Compound I-077] |
| 4.55^[a] | – | Cc1ncc(Oc2cccc(C3CC3)c2F)c(C(=O)NC2CCCc3ccc(Br)cc32)n1 (centres unmarked) [Compound I-045] |
| – | 4.38 | Cc1ccc(C(F)(F)CNC(=O)c2nc(C)ncc2Oc2cccc(C3CC3)c2)c(C)c1 [Compound I-015, 5-(3-cyclopropylphenoxy)-N-[2-(2,4-dimethylphenyl)-2,2-difluoroethyl]-2-methylpyrimidine-4-carboxamide] |
